Test [1] has as its target T1, human recombinant 15-PGDH (Homo sapiens, UniProt P15428).
T1 sequence (P15428 1-266): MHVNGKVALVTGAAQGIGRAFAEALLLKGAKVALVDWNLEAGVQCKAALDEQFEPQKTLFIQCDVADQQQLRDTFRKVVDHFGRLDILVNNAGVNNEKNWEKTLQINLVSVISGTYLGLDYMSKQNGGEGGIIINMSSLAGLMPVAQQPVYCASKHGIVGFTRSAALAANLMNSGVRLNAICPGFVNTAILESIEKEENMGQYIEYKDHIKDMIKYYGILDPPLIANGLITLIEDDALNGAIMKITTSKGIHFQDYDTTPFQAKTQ
Description: Recombinant 15-PGDH enzymatic inhibition assay (PGDH-Lumi, NADH signal). The format is biochemical. As to conditions: recombinant 15-PGDH; 15 min pre-incubation, 60 min reaction with PGE2 and NAD+, NADH signal. The procedure, abridged:
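Recombinant 15-PGDH pre-incubated 15 min at room temperature with compound (22 concentrations, 2-fold dilutions) in 50 mM Tris pH 7.5, 0.01% Tween-20, […].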

The target in a further test is T2, 15-PGDH in A549 cells (Homo sapiens, UniProt P15428).
T2 construct: endogenous in cells; host or cells: A549
T2 sequence (P15428 1-266): T1 sequence (P15428 1-266)
Nature of the test: A549 cellular 15-PGDH assay (PGE2 accumulation, HTRF). The format is cell-based. As to conditions: interleukin-stimulated, inhibitor 24 hrs, PGE2 by competitive HTRF, read-out: A549 Cell Assay IC50. An excerpt:
This assay was used for the quantification of IL-13 induced Native Prostaglandin E2 (PGE2) produced by A549 cells (epithelial cells from lung carcinoma) in cell culture supernatants. […] PGE2 was detected in a competitive HTRF assay by using anti PGE2 antibody labeled with Europium cryptate, and PGE2 labeled with […]. The PGE2 present in the sample competes with the binding between the two HTRF detection solutions (reagents) and thereby prevents FRET from occurring. The specific signal is inversely proportional to the PGE2 concentration. From this binding data, IC50 values were calculated.
(Time-resolved FRET reads energy transfer from a long-lived donor to a nearby acceptor.)

From patent publication US20240409557A1, “5,6-FUSED AND 6,6-FUSED BICYCLIC ALCOHOLS AND ETHERS AND COMPOSITIONS FOR USE AS 15-PROSTAGLANDIN DEHYDROGENASE MODULATORS” (AMGEN INC., priority 2023, published 2024) come the findings set out here.

With `Cn1cc2cc(-c3ccc4ccc([C@]5(O)C[C@@H](C(F)F)C5)cc4n3)cnc2n1` [Compound D5C, cis-3-(difluoromethyl)-1-(2-(2-methyl-2H-pyrazolo[3,4-b]pyridin-5-yl)-7-quinolinyl)cyclobutanol], the values for the IC50 (in test [1]; on 15-PGDH in A549 cells) were 198 nM and 253 nM, respectively.
For the compound `CO[C@H]1C[C@@H]([C@@H](O)c2cc3ccc(-c4cnc5nn(C)cc5c4)nc3s2)C1` (single isomer, unassigned) [Compound B88RC], the results for the IC50 (in test [1]; on 15-PGDH in A549 cells) were 0.505 nM and 0.438 nM, respectively.
As for `COCCC(O)c1cc2ccc(-c3cnc4nn(C)cc4c3)nc2s1` (centres unmarked) [Compound B29, 3-methoxy-1-(6-(2-methyl-2H-pyrazolo[3,4-b]pyridin-5-yl)thieno[2,3-b]pyridin-2-yl)propan-1-ol], the IC50 is 0.38 nM in test [1] and 1.04 nM at 15-PGDH in A549 cells.
Consider `CCC[C@H](O)c1cc2ccc(-c3cnc4nn(C)cc4c3)nc2s1` (single isomer, unassigned) [Compound B27S], for which the IC50 in test [1] was 12.3 nM; at 15-PGDH in A549 cells it was 1.78 nM.
For the compound `O[C@@H](c1cc2ccc(-c3ccc4oncc4c3)nc2s1)C1CCOCC1` (single isomer, unassigned) [Compound B43R], the IC50 is 13.8 nM in test [1] and 196 nM at 15-PGDH in A549 cells.
The corresponding values for `Cn1cc2cc(-c3ccc4cc([C@H](O)C56CC(C(F)(F)F)(C5)C6)sc4n3)cnc2n1` (single isomer, unassigned) [Compound B91R] are 0.544 nM and 1.09 nM.
Turning to `CCC(O)c1cc2ccc(-c3cnc4nn(C)cc4c3)nc2s1` (centres unmarked) [Compound B22, 1-(6-(2-methyl-2H-pyrazolo[3,4-b]pyridin-5-yl)thieno[2,3-b]pyridin-2-yl)-1-propanol], the IC50 is 0.513 nM in test [1] and 1.29 nM on 15-PGDH in A549 cells.
The corresponding values for `Cn1cc2cc(-c3cc(-c4ccnn4C)c4cc(C(C)(O)C5CCC5)sc4n3)cnc2n1` (centres unmarked) [Compound C23, 1-cyclobutyl-1-(6-(2-methyl-2H-pyrazolo[3,4-b]pyridin-5-yl)-4-(1-methyl-1H-pyrazol-5-yl)thieno[2,3-b]pyridin-2-yl)ethanol] are 0.543 nM and 4.77 nM.
On to `Cn1cc2cc(-c3ccc4cc([C@@H](O)C56CC(C(F)(F)F)(C5)C6)sc4n3)cnc2n1` (single isomer, unassigned) [Compound B91S], for which the IC50 is 34.9 nM in test [1] and 2.37 nM at 15-PGDH in A549 cells.
Regarding `Cn1cc2cc(-c3ccc4cc([C@H](O)C5CCCC5)sc4c3)cnc2n1` (single isomer, unassigned) [Compound B58R], the IC50 is 0.24 nM in test [1] and 1.41 nM at 15-PGDH in A549 cells.
In the same order, the values of `Cn1cc2cc(-c3ccc4cc(C(O)C5CCOCC5)sc4n3)cnc2n1` (centres unmarked) [Compound B15, (6-(2-methyl-2H-pyrazolo[3,4-b]pyridin-5-yl)thieno[2,3-b]pyridin-2-yl)(tetrahydro-2H-pyran-4-yl)methanol] are 0.701 nM and 0.957 nM.
Take `Cn1cc2cc(-c3ccc4cc([C@]5(O)C[C@@H](C(F)F)C5)ccc4n3)cnc2n1` [Compound D6C, cis-3-(difluoromethyl)-1-(2-(2-methyl-2H-pyrazolo[3,4-b]pyridin-5-yl)-6-quinolinyl)cyclobutanol]: the IC50 in test [1] came to 1030 nM; on 15-PGDH in A549 cells it was 354 nM.
The corresponding values for `Cn1cc2cc(-c3ccc4cc([C@]5(O)C[C@H](F)C5)sc4n3)cnc2n1` [Compound C40T, trans-3-fluoro-1-(6-(2-methyl-2H-pyrazolo[3,4-b]pyridin-5-yl)thieno[2,3-b]pyridin-2-yl)cyclobutanol] are 6.58 nM and 3.36 nM.
Consider `Cn1cc2cc(-c3ccc4nc([C@H](O)C5CC(F)(F)C5)sc4n3)cnc2n1` (single isomer, unassigned) [Compound B72R], for which the IC50 is 0.216 nM in test [1] and 0.0479 nM on 15-PGDH in A549 cells.
In the same order, the values of `Cn1cc2cc(-c3ccc4cc(C5(O)CC(C)(C)C5)sc4n3)cnc2n1` [Compound C26, 3,3-dimethyl-1-(6-(2-methyl-2H-pyrazolo[3,4-b]pyridin-5-yl)thieno[2,3-b]pyridin-2-yl)cyclobutanol] are 0.273 nM and 0.0601 nM.
For `Cn1cc2cc(-c3ccc4cc([C@H](O)[C@H]5C[C@H](C(F)(F)F)C5)sc4n3)cnc2n1` (single isomer, unassigned) [Compound B84RT], the IC50 worked out at 0.365 nM in test [1] and 0.515 nM at 15-PGDH in A549 cells.
The corresponding values for `Cn1cc2cc(-c3ncc4cc([C@]5(O)C[C@@H](C6CC6)C5)sc4n3)cnc2n1` [Compound C99C, cis-3-cyclopropyl-1-(2-(2-methyl-2H-pyrazolo[3,4-b]pyridin-5-yl)thieno[2,3-d]pyrimidin-6-yl)cyclobutanol] are 0.291 nM and 0.666 nM.
The corresponding values for `Cn1cc2cc(-c3ccc4cc([C@H](O)C5CC(F)(F)C5)ccc4n3)cnc2n1` (single isomer, unassigned) [Compound D7R] are 24.7 nM and 61.8 nM.
Consider `Cn1cc2cc(-c3ccc4cc([C@H](O)C56CC(C5)C6)sc4n3)cnc2n1` (single isomer, unassigned) [Compound B87R], for which the IC50 in test [1] is 0.494 nM; on 15-PGDH in A549 cells it was 0.667 nM.
Turning to `Cn1cc2cc(-c3ccc4c(Cl)c(C5(O)CC(C)(C)C5)sc4n3)cnc2n1` [Compound C73, 1-(3-chloro-6-(2-methyl-2H-pyrazolo[3,4-b]pyridin-5-yl)thieno[2,3-b]pyridin-2-yl)-3,3-dimethylcyclobutanol], the values for the IC50 (in test [1]; on 15-PGDH in A549 cells) were 2.44 nM and 1.26 nM, respectively.
The corresponding values for `Cc1cn2cc(-c3ccc4cc(C5(O)CC(F)(F)C5)sc4n3)cnc2n1` [Compound C45, 3,3-difluoro-1-(6-(2-methylimidazo[1,2-a]pyrimidin-6-yl)thieno[2,3-b]pyridin-2-yl)cyclobutanol] are 1.68 nM and 1.35 nM.
The corresponding values for `Cc1cn2cc(-c3ccc4cc(C5(O)CC(F)(F)C5)sc4n3)ccc2n1` [Compound C37, 3,3-difluoro-1-(6-(2-methylimidazo[1,2-a]pyridin-6-yl)thieno[2,3-b]pyridin-2-yl)cyclobutanol] are 9.01 nM and 2.28 nM.
In the case of `Cn1nnc2cc(-c3ncc4cc([C@]5(O)C[C@@](C)(C#N)C5)sc4n3)cnc21` (single isomer, unassigned) [Compound C98C, cis-3-hydroxy-1-methyl-3-(2-(3-methyl-3H-[1,2,3]triazolo[4,5-b]pyridin-6-yl)thieno[2,3-d]pyrimidin-6-yl)cyclobutanecarbonitrile], the results for the IC50 (in test [1]; at 15-PGDH in A549 cells) were 8.69 nM and 18.7 nM, respectively.
In the same order, the values of `Cn1cnc(-c2ccc3cc(C(O)C4CC(F)(F)C4)sc3n2)cc1=O` (centres unmarked) [Compound B49, 6-(2-((3,3-difluorocyclobutyl)(hydroxy)methyl)thieno[2,3-b]pyridine-6-yl)-3-methylpyrimidin-4(3H)-one] are 0.608 nM and 0.739 nM.
For the compound `Cn1nnc2cc(-c3ccc4ccc([C@H](O)C5CCOCC5)cc4n3)cnc21` (single isomer, unassigned) [Compound D3R], the IC50 turned out to be 21700 nM in test [1] and 289 nM at 15-PGDH in A549 cells.
Regarding `CO[C@]1(C(F)(F)F)C[C@@](O)(c2cc3ccc(-c4cnc5nn(C)cc5c4)nc3s2)C1` (single isomer, unassigned) [Compound C66C, cis-3-methoxy-1-(6-(2-methyl-2H-pyrazolo[3,4-b]pyridin-5-yl)thieno[2,3-b]pyridin-2-yl)-3-(trifluoromethyl)cyclobutanol], the figures for the IC50 (in test [1]; on 15-PGDH in A549 cells) were 0.852 nM and 0.206 nM, respectively.
On to `O[C@]1(c2cc3cnc(-c4cnc5nccn5c4)nc3s2)C[C@H](C(F)(F)F)C1` [Compound C124C, cis-1-(2-(imidazo[1,2-a]pyrimidin-6-yl)thieno[2,3-d]pyrimidin-6-yl)-3-(trifluoromethyl)cyclobutanol], for which the IC50 in test [1] amounted to 2.01 nM; at 15-PGDH in A549 cells, 15.9 nM.
In the same order, the values of `Cn1cc2cc(-c3ccc4sc([C@@H](O)C5CC(F)(F)C5)nc4n3)cnc2n1` (single isomer, unassigned) [Compound B74S] are 24.1 nM and 4.48 nM.
On to `Cn1cc2cc(-c3ncc4cc([C@]5(O)C[C@@H](C(F)F)C5)sc4n3)cnc2n1` [Compound C80C, cis-3-(difluoromethyl)-1-(2-(2-methyl-2H-pyrazolo[3,4-b]pyridin-5-yl)thieno[2,3-d]pyrimidin-6-yl)cyclobutanol], for which the IC50 in test [1] is 0.771 nM; on 15-PGDH in A549 cells it was 1.26 nM.
For `Cn1cc2cc(-c3ccc4cc(C5(O)CC6(CCCC6)C5)sc4n3)cnc2n1` [Compound C53, 2-(6-(2-methyl-2H-pyrazolo[3,4-b]pyridin-5-yl)thieno[2,3-b]pyridin-2-yl)spiro[3.4]octan-2-ol], the IC50 in test [1] worked out at 0.363 nM; on 15-PGDH in A549 cells, 0.0361 nM.
In the same order, the values of `Cn1cc2cc(-c3ccc4cc([C@@H](O)C5CC5)sc4n3)cnc2n1` (single isomer, unassigned) [Compound B16S] are 27 nM and 9.58 nM.

A word on the IC50: it is the concentration that inhibits the measured activity by half.
